Structures can show the parent of a compound that is named as a salt. Where two headings read alike, the source gives them in different places.
Experiments:
[1] = test system: HT-22 cells; test: Protective effect on HT-22 cell damage caused by L-glutamate monosodium salt; type: cell-based, mouse; conditions: 15 mM L-glutamate; for viability at 0.078 µM / viability at 0.156 µM / viability at 0.625 µM / viability at 1.25 µM / viability at 5 µM / viability at 10 µM / viability at 2.5 µM / viability at 0.313 µM: Mus musculus, 24 hours; for protection of HT22 cells against L-glutamate monosodium salt damage, in words: comparison with positive control drug DMF
Experimental: (§1) Well-proliferated HT-22 cells, derived from mouse hippocampal neuronal cells in logarithmic growth phase, were selected, and they were counted after being subjected to trypsin digestion and dispersion. The cell density was adjusted with DMEM/F12 medium (containing 10% FBS and 1% double antibody). The cells were then inoculated in a 96-well plate at a density of 2,000 cells per well, and cultured in a cell incubator at 37° C. in atmosphere containing 5% CO2 for 24 hours. For the control group and the L-glutamate monosodium salt group (model group), serum-free DMEM/F12 medium was added, and the other wells were added with tested compounds of different concentrations; except that the serum-free DMEM/F12 medium was added to the control group. L-glutamate monosodium salt solution at the final concentration of 15 mM was added to the remaining wells. After 24 hours, the cell viability was detected with a luminescent cell viability assay kit.
as §1, with “group,” for “group.”
as §1, with “2.000” for “2,000”, “group,” for “group.”

[2] = test system: SH-SY5Y cells; test: Protective effect on SH-SY5Y cell damage caused by oxygen-glucose deprivation/reperfusion; type: cell-based; conditions: OGD 4 hours then 24 hours, CCK-8, model 56.83
Experimental: SH-SY5Y cells in logarithmic growth phase were selected, the culture medium was discarded, the cells were digested with 0.25% Trypsin containing EDTA, and cell suspension was made. Cell density was adjusted to 30,000/ml with DMEM/F12 medium (containing 10% FBS and 1% double antibody) and it was inoculated to 96-well plate, 100 μL/well, the number of cells per well was 3,000, and the cells were cultured in a cell incubator at 37° C. in an atmosphere containing 5% CO2 for 24 hours. After 24 hours, the cells were washed twice with the Earle's solution. For the control group, 100 μL oxygenated Earle's solution was added in each well, and for the remaining groups, 100 μL oxygen-free Earle's solution after nitrogen bubbling was added, and the oxygen content in an anoxic chamber was kept below 0.5%, and models were made in the cell incubator for 4 hours. […] After 24 hours, CCK-8 cell viability test kit was used to detect the cell viability.

[3] = HT-22, 24 h, Table 1, Conc 0.078 μm, L-Glu alone 27.73 (I-5 32.92), read-out: cell viability
[4] = HT-22, 24 h, Table 1, Conc 0.156 μm, L-Glu alone 27.73 (I-5 32.92), read-out: cell viability
[5] = HT-22, 24 h, Table 1, Conc 0.625 μm, L-Glu alone 27.73 (I-5 32.92), read-out: cell viability
[6] = HT-22, 24 h, Table 1, Conc 1.25 μm, L-Glu alone 27.73 (I-5 32.92), read-out: cell viability
[7] = HT-22, 24 h, Table 1, Conc 5 μm, L-Glu alone 27.73 (I-5 32.92), read-out: cell viability
[8] = HT-22, 24 h, Table 1, Conc 10 μm, L-Glu alone 27.73 (I-5 32.92), read-out: cell viability
[9] = HT-22, 24 h, Table 1, Conc 2.5 μm, L-Glu alone 27.73 (I-5 32.92), read-out: cell viability
[10] = HT-22, 24 h, Table 1, Conc 0.313 μm, L-Glu alone 27.73 (I-5 32.92), read-out: cell viability
[11] = HT-22, Table 2, Conc 2.5 μM, L-Glu alone 27.83, read-out: Visibility %
[12] = HT-22, Table 2, Conc 10 μM, L-Glu alone 27.83, read-out: Visibility %
[13] = HT-22, Table 2, Conc 0.078 μM, L-Glu alone 27.83, read-out: Visibility %
[14] = HT-22, Table 2, Conc 0.625 μM, L-Glu alone 27.83, read-out: Visibility %
[15] = HT-22, Table 2, Conc 0.156 μM, L-Glu alone 27.83, read-out: Visibility %
[16] = HT-22, Table 2, Conc 5 μM, L-Glu alone 27.83, read-out: Visibility %
[17] = HT-22, Table 2, Conc 0.313 μM, L-Glu alone 27.83, read-out: Visibility %
[18] = HT-22, Table 2, Conc 1.25 μM, L-Glu alone 27.83, read-out: Visibility %

| Structure (SMILES) | viability at 0.078 µM [1, 3] [%] | viability at 0.156 µM [1, 4] [%] | viability at 0.625 µM [1, 5] [%] | viability at 1.25 µM [1, 6] [%] | viability at 5 µM [1, 7] [%] | viability at 10 µM [1, 8] [%] | viability at 2.5 µM [1, 9] [%] | further results |
| --- | --- | --- | --- | --- | --- | --- | --- | --- |
| COC(=O)/C=C/c1ccccn1 [Compound I-1] | 38.7 | 45.7 | 47.9 | 43.5 | 38.4 | 33.4 |  |  |
| COC(=O)/C=C/c1cccnc1 [Compound I-3] | 46.8 | 50.6 | 46.8 | 45.2 | 37.3 | 31.2 | 47.5 |  |
| COC(=O)/C=C/c1ccncc1 [Compound I-4] | 45.1 | 44.1 | 42.3 | 41.3 | 40.2 | 37.6 | 40.5 | viability at 0.313 µM [1, 10]: 42.7% |
| N#C/C=C/c1cccnc1 [Compound I-6] | 40.1 | 43.3 |  | 40.9 | 40.1 | 42.6 | 43 | viability at 0.313 µM [1, 10]: 42.9% |
| N#C/C=C/c1ccncc1 [Compound I-7] | 48.8 | 48 | 40.6 | 55.5 | 32.2 |  |  | viability at 0.313 µM [1, 10]: 42.8% |
| CON(C)C(=O)/C=C/c1ccccn1 [Compound I-8] |  | 77.8 | 71.1 | 54.6 | 50.9 | 53 | 54.8 | protection of HT22 cells against L-glutamate monosodium salt damage, in words [1]: better effects than the positive control drug DMF; viability at 0.313 µM [1, 10]: 70.6% |
| CON(C)C(=O)/C=C/c1cccnc1 [Compound I-9] | 35.5 | 35.8 | 45.8 | 41.6 | 43.4 | 40.1 | 40.1 | viability at 0.313 µM [1, 10]: 40.8% |
| CON(C)C(=O)/C=C/c1ccncc1 [Compound I-10] | 44.7 | 43 | 43.3 | 41.9 | 43.4 | 37.5 | 47.8 | viability at 0.313 µM [1, 10]: 43.7% |
| CN(C)C(=O)/C=C/c1ccccn1 [Compound I-11] | 42.4 | 42.2 | 44.2 | 43.6 | 35.4 | 40.3 | 46.5 | viability at 0.313 µM [1, 10]: 46.1% |
| CN(C)C(=O)/C=C/c1cccnc1 [Compound I-12] | 48.9 |  | 49.5 | 45.6 | 39.3 | 44.3 | 44.2 | viability at 0.313 µM [1, 10]: 50.8% |
| CN(C)C(=O)/C=C/c1ccncc1 [Compound I-13] | 52.4 | 58.8 | 64.9 | 61.6 | 51.5 | 51.6 | 59.7 | protection of HT22 cells against L-glutamate monosodium salt damage, in words [1]: better effects than the positive control drug DMF |
| COC(=O)NC(=O)/C=C/c1ccccn1 [Compound I-15] |  |  |  |  |  |  |  | viability at 2.5 µM [1, 11]: 43.1%; viability at 10 µM [1, 12]: 34.1% |
| COC(=O)NC(=O)/C=C/c1cccnc1 [Compound I-16] |  |  |  |  |  |  |  | viability at 0.078 µM [1, 13]: 41.3%; viability at 0.625 µM [1, 14]: 34.2%; viability at 2.5 µM [1, 11]: 40.4% |
| COC(=O)NC(=O)/C=C/c1ccncc1 [Compound I-17] |  |  |  |  |  |  |  | viability at 0.156 µM [1, 15]: 48.3%; viability at 0.625 µM [1, 14]: 51.2%; viability at 5 µM [1, 16]: 33.6%; viability at 10 µM [1, 12]: 31.2% |
| COC(=O)/C=C/c1ncccn1 [Compound I-18] |  |  |  |  |  |  |  | viability at 5 µM [1, 16]: 40.9% |
| CN(C)C(=O)/C=C/c1ncccn1 [Compound I-19] |  |  |  |  |  |  |  | viability at 0.078 µM [1, 13]: 47.1%; viability at 0.156 µM [1, 15]: 39.2%; viability at 0.313 µM [1, 17]: 37.5% |
| CN(C)C(=O)/C=C/c1ccncn1 [Compound I-20] |  |  |  |  |  |  |  | viability at 0.156 µM [1, 15]: 43.4%; viability at 2.5 µM [1, 11]: 57.1%; viability at 10 µM [1, 12]: 51.2% |
| CON(C)C(=O)/C=C/c1ccncn1 [Compound I-21] |  |  |  |  |  |  |  | viability at 2.5 µM [1, 11]: 60.3%; viability at 10 µM [1, 12]: 58.4% |
| COC(=O)/C=C/c1ncc[nH]1 [Compound I-22] |  |  |  |  |  |  |  | viability at 1.25 µM [1, 18]: 40%; viability at 2.5 µM [1, 11]: 42.7% |
| COC(=O)/C=C/c1nccn1C [Compound I-23] |  |  |  |  |  |  |  | protection of HT22 cells against L-glutamate monosodium salt damage, in words [1]: equivalent to that of a positive control drug DMF; viability at 0.078 µM [1, 13]: 65.4%; viability at 0.313 µM [1, 17]: 38.3%; viability at 1.25 µM [1, 18]: 39% |
| CN(C)C(=O)/C=C/c1nccn1C [Compound I-24] |  |  |  |  |  |  |  | viability at 0.156 µM [1, 15]: 39.6%; viability at 0.313 µM [1, 17]: 38%; viability at 2.5 µM [1, 11]: 35.7% |
| Cc1coc(/C=C/C#N)n1 [Compound I-26] |  |  |  |  |  |  |  | protection of HT22 cells against L-glutamate monosodium salt damage, in words [1]: perform far better than the positive control drug DMF |
| COC(=O)/C=C/c1ncco1 [Compound I-27] |  |  |  |  |  |  |  | protection of HT22 cells against L-glutamate monosodium salt damage, in words [1]: perform better than the positive control drug DMF |
| COC(=O)/C=C/c1nc(C)cs1 [Compound I-28] |  |  |  |  |  |  |  | protection of HT22 cells against L-glutamate monosodium salt damage, in words [1]: perform far better than the positive control drug DMF |
| Cc1csc(/C=C/C#N)n1 [Compound I-30] |  |  |  |  |  |  |  | protection of HT22 cells against L-glutamate monosodium salt damage, in words [1]: perform better than the positive control drug DMF |
| CC1=NN(c2ccccc2)C(=O)C1 [Edaravone, reference compound] |  |  |  |  |  |  |  | Visibility % ([2]; Conc 0.078 μM): 59.41%; Visibility % ([2]; Conc 0.156 μM): 62.42%; Visibility % ([2]; Conc 10 μM): 67.39% |
| N#C/C=C/c1ccccn1 [I-5 HCl] |  |  |  |  |  |  |  | Visibility % ([2]; Conc 0.078 μM): 67.72%; Visibility % ([2]; Conc 0.156 μM): 67.82%; Visibility % ([2]; Conc 0.313 μM): 69.35%; Visibility % ([2]; Conc 0.625 μM): 74.72% |
